This note sets out measurements from patent publication US8815221B2, “Composition used for skin whitening, plant extracted skin whitening composition and composition having a skin whitening effect” (Industrial Technology Research Institute, priority 2009, dated 2014).

Where “and” joins values, the source holds several entries; their conditions need not be identical. Identical values can stand only once.

One test relates to Mouse melanoma B16-F0. The test is described as follows: Melanin inhibition test (melanin content analysis). The test is classed as cell-based. As to conditions: concentration of 100 μg/ml, B16 cells, 48 hours, read-out: Melanin content inhibiting rate. As for the experimental part:
Mouse melanoma B16-F0 (ATCC CRL-6322, bought from Food Industry Research and Development Institute (FIRDI) (331 Shih-Pin Road, Hsinchu, 300 Taiwan R.O.C.)) was cultured in a medium (Dulbecco's MEM, DMEM) containing 10% fetal bovine serum and 1% penicillin-streptomycin under a temperature of 37° C., in a 5% CO2 incubator.
2. Melanin Content Analysis
Inhibition of B16 Cell Melanin by Extracts:
After a test sample was added to the B16 cells in the medium for 48 hours, the medium was removed. The B16 cells were washed twice with the PBS buffer and then 300 μl of a 1N NaOH which was preheated at a temperature of 70° C. was added to the B16 cells and the B16 cells were, placed in a 60° C. incubator for 60 minutes. Next, 200 μl of the 1N NaOH which had been added to the B16 cells mention above was added to a 96 well plate to determined the absorbance value at 405 nm. The formula for calculating the melanin content is shown in the following: Melanin content=(M/M0)×100%
M: absorbance value for B16 cells being treated with sample
M0: absorbance value for B16 cells not being treated with sample

The target in the next test is T1, Tyrosinase (Sigma T3824) (Agaricus bisporus, UniProt C7FF04).
T1 construct: purchased Sigma T3824
T1 sequence (C7FF04 1-392 limits assumed): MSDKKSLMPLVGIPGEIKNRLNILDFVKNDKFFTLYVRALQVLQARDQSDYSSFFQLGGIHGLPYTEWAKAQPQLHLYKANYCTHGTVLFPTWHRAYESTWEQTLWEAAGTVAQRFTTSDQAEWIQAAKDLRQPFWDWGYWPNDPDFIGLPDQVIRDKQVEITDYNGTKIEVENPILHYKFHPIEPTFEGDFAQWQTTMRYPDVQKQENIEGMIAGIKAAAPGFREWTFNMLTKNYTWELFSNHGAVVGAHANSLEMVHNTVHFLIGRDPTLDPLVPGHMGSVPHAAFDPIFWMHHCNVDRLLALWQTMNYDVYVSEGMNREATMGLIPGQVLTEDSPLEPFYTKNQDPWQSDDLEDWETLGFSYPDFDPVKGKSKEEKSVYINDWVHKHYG
The test is described as follows: Tyrosinase inhibition test. In kind it is biochemical. The following applies: L-Dopa substrate; for IC50: read-out: 50% tyrosinase inhibitory concentration (IC50) (converted); for Tyrosinase inhibiting rate (%) (100 μg/ml) / inhibition at 100 µg/mL: concentration of 100 μg/ml; for inhibition at 100 µg/mL: read-out: Tyrosinase inhibiting rate (%) (100 μg/ml); for inhibition at 125 µg/mL: concentration of 125 μg/ml, read-out: Tyrosinase inhibiting rate. How it is done: Tyrosinase Inhibition Test
1. A tyrosinase solution using Tyrosinase (Sigma T3824) was prepared, wherein after diluted with a 0.1 M phosphate buffer, a 0.1 U/μl tyrosinase solution was obtained.
2. A L-Dopa solution using L-Dopa (Sigma D9628) was prepared, wherein after diluted with a 0.1 M phosphate buffer, a 1 mM L-Dopa solution was obtained and then was placed a dark environment.
3. A test sample solution was prepared comprising 10 mg/ml of a sample solution diluted with 100% of DMSO. Then the test sample solution was further diluted for require concentrations using a 0.1 M phosphate buffer.
4. 50 μl/well of the prepared test sample solution mentioned above was added into the wells of a 96 well plate (note that the same diluted concentration of DMSO for the test sample solution was also added into the wells of a 96 well plate and used for the blank group) and then 90 μl/well of the prepared 0.1 U/μl tyrosinase solution mentioned above was added thereto (the dC control group was added the 0.1 M phosphate buffer but not the 0.1 U/μl tyrosinase solution). The 96 well plate was placed under a temperature of 37° C. and mixed at 450 rpm for 5 minutes and then placed in an ELISA reader (Molecular Devices M2). The wave length of the ELISA reader was set at 492 nm to determine absorbance values of the solutions in the 96 well plate, wherein two absorbance values were determined and the average value therefrom was used as a background value. Next, 60 μl/well of the prepared 1 mM L-Dopa solution mentioned above was added to the 96 well plate (the dD control group was added the 0.1 M phosphate buffer not the 1 mM L-Dopa solution) and then the 96 well plate was placed under a temperature of 37° C. in a dark environment and mixed at 450 rpm for 15 minutes and then placed in a ELISA reader (Molecular Devices M2). The wave length of the ELISA reader was set at 492 nm to determine absorbance values of the solutions in the 96 well plate, wherein two absorbance values were determined and the average value therefrom was used as a measurement value. After the background value was subtracted from the measurement value, the tyrosinase inhibiting rate of the sample was calculated. The formula for calculating the tyrosinase inhibiting rate of the sample is shown in the following: (A−A0)−(B−B0)−dC−dD/(A−A0)×100% […]
A: absorbance value of the blank group
B: absorbance value of the sample
A0: background value of the blank group
B0: background value of the sample dC: absorbance variation for the sample only reacted with the L-Dopa dD: absorbance variation for the sample only reacted with the tyrosinase

As for `O=C(/C=C/c1ccc(O)cc1)NCCCCN(CCCNC(=O)/C=C/c1ccc(O)cc1)C(=O)/C=C/c1ccc(O)cc1` [Compound 1], the inhibition at 100 µg/mL in the test on Mouse melanoma B16-F0 was around 19.9%. Also, at Tyrosinase (Sigma T3824), the IC50 was < 63.4 µM and 62 µM; the “Tyrosinase inhibiting rate (%) (100 μg/ml)” value was 61.2 ± 2.5%; the inhibition at 100 µg/mL is around 62%. Further, on Tyrosinase (Sigma T3824) (listed as compound 1), the “Tyrosinase inhibiting rate (%) (100 μg/ml)” value was “about 61.2±2.5%”.

Take `COc1cc(/C=C/C(=O)NCCCCN(CCCNC(=O)/C=C/c2ccc(O)c(OC)c2)C(=O)/C=C/c2ccc(O)c(OC)c2)ccc1O` [Compound 2]: at Tyrosinase (Sigma T3824), the IC50 is 335 µM, the inhibition at 100 µg/mL was found to be 15 ± 1.7% and the inhibition at 125 µg/mL was determined as 29.2 ± 2%.

As for `O=C(/C=C/c1ccccc1O)NCCCCN(CCCNC(=O)/C=C/c1ccccc1O)C(=O)/C=C/c1ccccc1O` [Compound 3], at Tyrosinase (Sigma T3824), the IC50 is 752 µM, the inhibition at 100 µg/mL was found to be 10.4 ± 0.1% and the inhibition at 125 µg/mL stood at 13.2 ± 1.1%.

For the molecule `O=C(/C=C/c1ccc(O)c(O)c1)NCCCCN(CCCNC(=O)/C=C/c1ccc(O)c(O)c1)C(=O)/C=C/c1ccc(O)c(O)c1` [Compound 4], at Tyrosinase (Sigma T3824), the IC50 was 29.4 µM and < 30.1 µM; the inhibition at 100 µg/mL is 62.2 ± 27.2%; the inhibition at 125 µg/mL worked out at 74.5 ± 16.1%. Further, the “Tyrosinase inhibiting rate (%) (100 μg/ml)” value on Tyrosinase (Sigma T3824) (listed as Structure (III)) is reported as “about 63%”.
